Here are results for six compounds from patent publication US8324378B2, “Prodrugs and conjugates of prenylation inhibitors” (Purdue Research Foundation, priority 2007, dated 2012).

Assay [1] concerns the target T1, FTase (Homo sapiens, UniProt P49354+P49356). Kind of assay: in vitro inhibition of FTase by farnesylated monophosphates. Format: biochemical.
The target of assay [2] is T1, FTase. The note with it: background, have been shown; cited from earlier work.
Setting [3] is: read-out: IC50 for inhibition of FTase.

SMILES strings stand for the structures. Like-named read-outs stand apart in the source and are kept apart here.

Usually IC50 stands for the concentration that gives 50% inhibition.

With `CC(C)=CCCC(C)=CCCC(=CCOP(=O)(O)O)CC=C(C)C` [3-(3,3-dimethylallyl)farnesyl monophosphate], the IC50 on FTase [1] (highest dose tested 10 uM, read-out: IC50 for inhibition of FTase (not showing 50% inhibition at the highest dose tested)) is over 10000 nM. Take `C=CCC(=CCOP(=O)(O)O)CCC=C(C)CCC=C(C)C` [3-Allylfarnesyl monophosphate, 3-allylfarnesyl monophosphate]: on FTase [1] (setting [3]), the 50% inhibitory concentration (IC50) is about 11 nM.

Consider `CC(C)=CCCC(C)=CCCC(=CCOP(=O)(O)O)C(C)(C)C` [3-t-butylfarnesyl monophosphate], for which the IC50 on FTase [1] (setting [3]) was about 16 nM. With `CC(C)=CCCC(C)=CCCC(=CCOP(=O)(O)OP(=O)(O)O)CC=C(C)C` [pyrophosphate of 3-(3,3-dimethylallyl)farnesol], the “inhibition of FTase, described in words” value at FTase [2] is recorded as “protein-selective inhibitor”. For the compound `C=CCC(=CCOP(=O)(O)OP(=O)(O)O)CCC=C(C)CCC=C(C)C` [pyrophosphate of 3-allylfarnesol], the “inhibition of FTase, described in words” value on FTase [2] is listed as “nanomolar inhibitors”. As to `CC(C)=CCCC(C)=CCCC(=CCOP(=O)(O)OP(=O)(O)O)C(C)(C)C` [pyrophosphate of 3-t-butylfarnesol], on FTase [2], the “inhibition of FTase, described in words” value is recorded as “nanomolar inhibitors”.
